Test results: the supplement of paper PMC10307832

Tests used:
Assay in all cases: relative viability (nuclei count vs DMSO), 5 days (fraction); higher = more cells survive
[1] = compound: CN(C/C=C/C1=CC=C(C=C1)Cl)CC2=CC=CC=C2N(CCO)S(=O)(=O)C3=CC=C(C=C3)OC [KN-93] + CC(=O)Nc1cccc(-n2c(=O)n(C3CC3)c(=O)c3c(Nc4ccc(I)cc4F)n(C)c(=O)c(C)c32)c1 [Trametinib] (partner 0.02 µM)
In short: (§1)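 Each reported value is a median over duplicate plates. It expresses relative viability: treated-well nuclei count divided by vehicle-well nuclei count. Lung cancer cell lines in 1536-well plates were dosed by pin tool a day after seeding, alone with one drug or with a fixed anchor-drug dose plus five library-drug doses (not always all listed) in √10 steps, and nuclei were counted after 5 days.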

[2] = compound: CN(C/C=C/C1=CC=C(C=C1)Cl)CC2=CC=CC=C2N(CCO)S(=O)(=O)C3=CC=C(C=C3)OC [KN-93] + CCNC(=O)c1noc(-c2cc(C(C)C)c(O)cc2O)c1-c1ccc(CN2CCOCC2)cc1 [Luminespib] (partner 0.01 µM)
In short: as §1

[3] = compound: CN(C/C=C/C1=CC=C(C=C1)Cl)CC2=CC=CC=C2N(CCO)S(=O)(=O)C3=CC=C(C=C3)OC [KN-93] + COc1cccc2cc(-c3nc([C@H]4CC[C@H](C(=O)O)CC4)n4ncnc(N)c34)[nH]c12 [OSI-027] (partner 0.5 µM)
In short: as §1

[4] = compound: CN(C/C=C/C1=CC=C(C=C1)Cl)CC2=CC=CC=C2N(CCO)S(=O)(=O)C3=CC=C(C=C3)OC [KN-93] + NC(=O)Nc1cc(-c2cccc(F)c2)sc1C(=O)N[C@H]1CCCNC1 [AZD7762] (partner 0.2 µM)
In short: as §1

[5] = compound: CN(C/C=C/C1=CC=C(C=C1)Cl)CC2=CC=CC=C2N(CCO)S(=O)(=O)C3=CC=C(C=C3)OC [KN-93] + O=C(CCCCCCC(=O)Nc1ccccc1)NO [Vorinostat] (partner 1 µM)
In short: as §1

Cell Line	relative viability ([1]; first compound 0.08 µM)	relative viability ([1]; first compound 0.253 µM)	relative viability ([1]; first compound 2.53 µM)	relative viability ([1]; first compound 8 µM)	relative viability ([2]; first compound 0.08 µM)	relative viability ([2]; first compound 0.253 µM)	relative viability ([2]; first compound 2.53 µM)	relative viability ([2]; first compound 8 µM)	relative viability ([3]; first compound 0.08 µM)	relative viability ([3]; first compound 0.253 µM)	relative viability ([3]; first compound 2.53 µM)	relative viability ([3]; first compound 8 µM)	relative viability ([4]; first compound 0.08 µM)	relative viability ([4]; first compound 0.253 µM)	relative viability ([4]; first compound 2.53 µM)	relative viability ([4]; first compound 8 µM)	relative viability ([5]; first compound 0.08 µM)	relative viability ([5]; first compound 0.253 µM)	relative viability ([5]; first compound 2.53 µM)	relative viability ([5]; first compound 8 µM)
NCI-H2405	0.603	0.598	0.665	0.491	0.752	0.76	0.778	0.446	0.62	0.584	0.697	0.606	0.735	0.859	0.806	0.555	1.02	1.08	0.949	0.691
NCI-H3122	0.2	0.21	0.264	0.194	0.0763	0.0918	0.0989	0.0487	0.967	1.04	1.04	0.631	0.892	1.11	1.12	0.934	0.595	1.12	1.08	0.66
PC-3 [JPC-3]	0.703	0.533	0.674	0.608	0.572	0.838	0.632	0.577	0.695	0.749	0.771	0.55	0.813	0.757	0.781	0.714	0.794	0.765	0.756	0.637
PC-14	0.553	0.802	0.696	0.524	0.151	0.154	0.13	0.138	0.522	0.892	0.806	0.519	0.331	0.316	0.527	0.343	0.623	0.753	0.649	0.625
RERF-LC-KJ	0.924	0.869	0.83	0.624	1.21	1.51	1.16	0.559	0.557	0.509	0.588	0.353	0.707	0.898	1	0.753	0.785	0.643	0.696	0.577
SW 900	0.93	0.835	1.04	0.643	0.166	0.178	0.145	0.182	0.571	0.438	0.624	0.411	0.669	0.628	0.684	0.522	0.592	0.333	0.624	0.192
